# Measured values from patent US10294202B2, “Pyrrolidinones as herbicides” (FMC Corporation, priority 2013, dated 2019).
# Key:
# [1] = test system: wild poinsettia; experiment: Test E preemergence herbicide test; assay type: in vivo, Euphorbia heterophylla; design: key: 0 = no effect, 100 = complete control
# Description: (§1) Seeds of plant species selected from corn (Zea mays), soybean (Glycine max), velvetleaf (Abutilon theophrasti), lambsquarters (Chenopodium album), wild poinsettia (Euphorbia heterophylla), pigweed, palmer (palmer pigweed, Amaranthus palmeri), waterhemp (common waterhemp, Amaranthus rudis), surinam grass (Brachiaria decumbens), crabgrass, large (large crabgrass, Digitaria sanguinalis), crabgrass, Brazil (Brazilian crabgrass, Digitaria horizontalis), panicum, fall (fall panicum, Panicum dichotomiflorum), foxtail, giant (giant foxtail, Setaria faberii), foxtail, green (green foxtail, Setaria viridis), goosegrass (Eleusine indica), johnsongrass (Sorghum halepense), ragweed (common ragweed, Ambrosia elatior), barnyardgrass (Echinochloa crus-galli), sandbur (southern sandbur, Cenchrus echinatus), arrowleaf […] rhombifolia), ryegrass, Italian (Italian ryegrass, Lolium multiflorum), dayflower, VA (Virginia dayflower, Commelina virginica), field bindweed (Convolvulus arvensis), morningglory (Ipomoea coccinea), nightshade (eastern black nightshade, Solanum ptycanthum), kochia (Kochia scoparia), nutsedge, yellow (yellow nutsedge, Cyperus esculentus), cocklebur (common cocklebur, Xanthium strumarium), smartweed (ladysthumb smartweed, Polygonum Persicaria) and beggarticks (hairy beggarticks, Bidens pilosa), were planted into a silt loam soil and treated preemergence with test chemicals formulated in a non-phytotoxic solvent mixture which included a surfactant. Treated plants and controls were maintained in a greenhouse for 21 days, after which time all species were compared to controls and visually evaluated. Plant response ratings, summarized in Table E, are based on a scale of 0 to 100 where 0 is no effect and 100 is complete control. A dash (-) response means no test result.
# [2] = test system: johnsongrass; experiment: Test E preemergence herbicide test; assay type: in vivo, Sorghum halepense; design: key: 0 = no effect, 100 = complete control
# Description: as §1
# [3] = test system: field poppy; experiment: Test D pre-/postemergence herbicide test; assay type: in vivo, Papaver rhoeas; settings: for Plant response rating: Field Poppy, scale 0 to 100; for Plant response rating, Field Poppy: scale 0 to 100 (0 no effect, 100 complete control)
# How it was run: (§2)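 Plants were sown in silt loam for preemergence spraying or in a peat moss/vermiculite mix for postemergence spraying at 2 to 18 cm height. Formulations used a non-phytotoxic solvent mixture with a surfactant. After 7 to 21 days, responses were scored visually from 0 (no effect) to 100 (complete control).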
# [4] = test system: foxtail, green; experiment: Test D pre-/postemergence herbicide test; assay type: in vivo, Setaria viridis; settings: for Plant response rating: Foxtail, Green, scale 0 to 100; for Plant response rating, Foxtail, Green: scale 0 to 100 (0 no effect, 100 complete control)
# How it was run: as §2
# [5] = test system: wheat, spring; experiment: Test D pre-/postemergence herbicide test; assay type: in vivo, Triticum aestivum; settings: for Plant response rating: Postemergence, Wheat, Spring, scale 0 to 100; for Plant response rating, Wheat, Spring: Preemergence, scale 0 to 100 (0 no effect, 100 complete control)
# Description: (§3) Seeds of plant species selected from bluegrass (annual bluegrass, Poa annua), blackgrass (Alopecurus myosuroides), canarygrass (littleseed canarygrass, Phalaris minor), chickweed (common chickweed, Stellaria media), galium (catchweed bedstraw, Galium aparine), bromegrass, downy (downy bromegrass, Bromus tectorum), field poppy (Papaver rhoeas), field violet (Viola arvensis), foxtail, green (green foxtail, Setaria viridis), deadnettle (henbit deadnettle, Lamium amplexicaule), ryegrass, Italian (Italian ryegrass, Lolium multiflorum), kochia (Kochia scoparia), lambsquarters (Chenopodium album), oilseed rape (Brassica napus), pigweed (Amaranthus retroflexus), chamomile (scentless chamomile, Matricaria inodora), Russian thistle (Salsola kali), speedwell (bird's-eye speedwell, Veronica persica), barley, spring (spring barley, Hordeum vulgare), wheat, spring (spring wheat, Triticum aestivum), buckwheat, wild (wild buckwheat, Polygonum convolvulus), mustard, wild (wild mustard, Sinapis arvensis), oat, wild (wild oat, Avena fatua), radish, wild (wild radish, Raphanus raphanistrum), […]), barley, winter (winter barley, Hordeum vulgare), and wheat, winter (winter wheat, Triticum aestivum) were planted into a silt loam soil and treated preemergence with test chemicals formulated in a non-phytotoxic solvent mixture which included a surfactant. At the same time, these species were planted in pots containing Redi-Earth® planting medium (Scotts Company, 14111 Scottslawn Road, Marysville, Ohio 43041) comprising spaghnum peat moss, vermiculite, wetting agent and starter nutrients and treated with postemergence applications of the test chemicals formulated in the same manner. Plants ranged in height from 2 to 18 cm (1- to 4-leaf stage). Treated plants and controls were maintained in a controlled growth environment for 7 to 21 days after which time all species were compared to controls and visually evaluated. Plant response ratings, summarized in Table D, are based on a scale of 0 to 100 where 0 is no effect and 100 is complete control. A dash (-) response means no test result.
# [6] = test system: wheat, winter; experiment: Test D pre-/postemergence herbicide test; assay type: in vivo, Triticum aestivum; settings: for Plant response rating: Postemergence, Wheat, Winter, scale 0 to 100; for Plant response rating, Wheat, Winter: Preemergence, scale 0 to 100 (0 no effect, 100 complete control)
# Description: as §3
# [7] = test system: radish, wild; experiment: Test D pre-/postemergence herbicide test; assay type: in vivo, Raphanus raphanistrum; settings: for Plant response rating, Radish, Wild: Preemergence, scale 0 to 100 (0 no effect, 100 complete control); for Plant response rating: Postemergence, Radish, Wild, scale 0 to 100
# Description: as §3
structure (smiles),measurement,setting,value
O=C1NCC(c2ccc(Cl)c(Cl)c2)C1C(=O)Nc1ccccc1F (racemic) [Compound 14],"Plant response rating, Poinsettia, Wild",[1]; 16 g ai/ha,0
same,"Plant response rating, Poinsettia, Wild",[1]; 31 g ai/ha,0
same,"Plant response rating, Poinsettia, Wild",[1]; 62 g ai/ha,15
same,"Plant response rating, Poinsettia, Wild",[1]; 125 g ai/ha,20
same,"Plant response rating, Poinsettia, Wild",[1]; 250 g ai/ha,25
same,"Plant response rating, Johnsongrass",[2]; 16 g ai/ha,0
same,"Plant response rating, Johnsongrass",[2]; 31 g ai/ha,0
same,"Plant response rating, Johnsongrass",[2]; 62 g ai/ha,0
same,"Plant response rating, Johnsongrass",[2]; 125 g ai/ha,0
same,"Plant response rating, Johnsongrass",[2]; 250 g ai/ha,0
O=C1NCC(c2ccc(OC(F)F)cc2)C1C(=O)Nc1cccc(F)c1F (racemic) [Compound 350],"Plant response rating, Poinsettia, Wild",[1]; 31 g ai/ha,0
same,"Plant response rating, Poinsettia, Wild",[1]; 62 g ai/ha,0
same,"Plant response rating, Poinsettia, Wild",[1]; 125 g ai/ha,0
same,"Plant response rating, Poinsettia, Wild",[1]; 250 g ai/ha,30
same,"Plant response rating, Johnsongrass",[2]; 31 g ai/ha,0
same,"Plant response rating, Johnsongrass",[2]; 62 g ai/ha,0
same,"Plant response rating, Johnsongrass",[2]; 125 g ai/ha,0
same,"Plant response rating, Johnsongrass",[2]; 250 g ai/ha,0
O=C1NCC(c2ccc(Cl)c(F)c2)C1C(=O)Nc1cccc(F)c1F (centres unmarked) [Compound 52],Plant response rating,"[3]; Postemergence, 16 g ai/ha",0
same,Plant response rating,"[3]; Postemergence, 31 g ai/ha",0
same,Plant response rating,"[3]; Postemergence, 62 g ai/ha",0
same,Plant response rating,"[3]; Postemergence, 125 g ai/ha",0
same,Plant response rating,"[3]; Postemergence, 250 g ai/ha",0
same,"Plant response rating, Field Poppy","[3]; Preemergence, 62 g ai/ha",50
same,"Plant response rating, Field Poppy","[3]; Preemergence, 16 g ai/ha",30
same,"Plant response rating, Field Poppy","[3]; Preemergence, 31 g ai/ha",50
same,Plant response rating,"[3]; Preemergence, 250 g ai/ha",80
same,Plant response rating,"[4]; Postemergence, 16 g ai/ha",0
same,Plant response rating,"[4]; Postemergence, 31 g ai/ha",0
same,Plant response rating,"[4]; Postemergence, 62 g ai/ha",0
same,Plant response rating,"[4]; Postemergence, 125 g ai/ha",0
same,Plant response rating,"[4]; Postemergence, 250 g ai/ha",0
same,"Plant response rating, Foxtail, Green","[4]; Preemergence, 62 g ai/ha",0
same,"Plant response rating, Foxtail, Green","[4]; Preemergence, 16 g ai/ha",0
same,"Plant response rating, Foxtail, Green","[4]; Preemergence, 31 g ai/ha",0
same,Plant response rating,"[4]; Preemergence, 125 g ai/ha",0
same,Plant response rating,"[4]; Preemergence, 250 g ai/ha",60
same,Plant response rating,[5]; 16 g ai/ha,0
same,Plant response rating,[5]; 31 g ai/ha,0
same,Plant response rating,[5]; 62 g ai/ha,0
same,Plant response rating,[5]; 125 g ai/ha,0
same,Plant response rating,[5]; 250 g ai/ha,0
same,"Plant response rating, Wheat, Spring",[5]; 62 g ai/ha,0
same,"Plant response rating, Wheat, Spring",[5]; 125 g ai/ha,0
same,"Plant response rating, Wheat, Spring",[5]; 16 g ai/ha,0
same,"Plant response rating, Wheat, Spring",[5]; 31 g ai/ha,0
same,"Plant response rating, Wheat, Spring",[5]; 250 g ai/ha,0
same,Plant response rating,[6]; 16 g ai/ha,0
same,Plant response rating,[6]; 31 g ai/ha,0
same,Plant response rating,[6]; 62 g ai/ha,0
same,Plant response rating,[6]; 125 g ai/ha,0
same,Plant response rating,[6]; 250 g ai/ha,0
same,"Plant response rating, Wheat, Winter",[6]; 62 g ai/ha,0
same,"Plant response rating, Wheat, Winter",[6]; 125 g ai/ha,0
same,"Plant response rating, Wheat, Winter",[6]; 16 g ai/ha,0
same,"Plant response rating, Wheat, Winter",[6]; 31 g ai/ha,0
same,"Plant response rating, Wheat, Winter",[6]; 250 g ai/ha,10
same,"Plant response rating, Radish, Wild",[7]; 16 g ai/ha,0
O=C1NCC(c2ccc(C(F)(F)F)cc2)C1C(=O)Nc1ccccc1F (centres unmarked) [Compound 231],Plant response rating,"[3]; Postemergence, 31 g ai/ha",0
same,Plant response rating,"[3]; Postemergence, 62 g ai/ha",20
same,Plant response rating,"[3]; Postemergence, 125 g ai/ha",0
same,Plant response rating,"[3]; Postemergence, 250 g ai/ha",50
same,"Plant response rating, Field Poppy","[3]; Preemergence, 62 g ai/ha",80
same,"Plant response rating, Field Poppy","[3]; Preemergence, 125 g ai/ha",100
same,"Plant response rating, Field Poppy","[3]; Preemergence, 31 g ai/ha",80
same,Plant response rating,"[3]; Preemergence, 250 g ai/ha",95
same,Plant response rating,"[4]; Postemergence, 31 g ai/ha",10
same,Plant response rating,"[4]; Postemergence, 62 g ai/ha",65
same,Plant response rating,"[4]; Postemergence, 125 g ai/ha",70
same,Plant response rating,"[4]; Postemergence, 250 g ai/ha",70
same,"Plant response rating, Foxtail, Green","[4]; Preemergence, 62 g ai/ha",80
same,"Plant response rating, Foxtail, Green","[4]; Preemergence, 125 g ai/ha",95
same,"Plant response rating, Foxtail, Green","[4]; Preemergence, 31 g ai/ha",45
same,Plant response rating,"[4]; Preemergence, 250 g ai/ha",98
same,Plant response rating,[5]; 31 g ai/ha,0
same,Plant response rating,[5]; 62 g ai/ha,0
same,Plant response rating,[5]; 125 g ai/ha,0
same,Plant response rating,[5]; 250 g ai/ha,0
same,"Plant response rating, Wheat, Spring",[5]; 62 g ai/ha,5
same,"Plant response rating, Wheat, Spring",[5]; 125 g ai/ha,0
same,"Plant response rating, Wheat, Spring",[5]; 31 g ai/ha,0
same,"Plant response rating, Wheat, Spring",[5]; 250 g ai/ha,20
same,Plant response rating,[6]; 31 g ai/ha,0
same,Plant response rating,[6]; 62 g ai/ha,0
same,Plant response rating,[6]; 125 g ai/ha,0
same,Plant response rating,[6]; 250 g ai/ha,0
same,"Plant response rating, Wheat, Winter",[6]; 62 g ai/ha,10
same,"Plant response rating, Wheat, Winter",[6]; 125 g ai/ha,15
same,"Plant response rating, Wheat, Winter",[6]; 31 g ai/ha,5
same,"Plant response rating, Wheat, Winter",[6]; 250 g ai/ha,25
same,Plant response rating,[7]; 31 g ai/ha,30
same,Plant response rating,[7]; 62 g ai/ha,70
same,Plant response rating,[7]; 125 g ai/ha,75
same,Plant response rating,[7]; 250 g ai/ha,70
same,"Plant response rating, Radish, Wild",[7]; 62 g ai/ha,0
same,"Plant response rating, Radish, Wild",[7]; 125 g ai/ha,0
same,"Plant response rating, Radish, Wild",[7]; 31 g ai/ha,0
same,"Plant response rating, Radish, Wild",[7]; 250 g ai/ha,0
